Assay results reported in PubChem BioAssay AID248 (DTP/NCI, 2004).
Several values for one entry are separate records, joined by “and”; a condition that tells them apart may be missing. Equal values may be shown once. Toxic doses and inconclusive results are not listed.

Tested on: L1210 leukemia ip in BDF1 mice, survival T/C
Experiment: NCI In Vivo Anticancer Drug Screen. Data for tumor model L1210 Leukemia (intraperitoneal) in B6D2F1 (BDF1) mice
Details: endpoint: mean survival time, higher = longer survival
Method in brief: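 Tumor cells were implanted, animals were treated, and survival was followed. The result divides the treated measurement by the vehicle-control measurement.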

In the case of `Nc1nc(=S)c2ncn(C3OC(CO)C(O)C3O)c2[nH]1` (centres undefined), the T/C (dose: 0.09 mg/kg/injection, schedule: Q01DX Z (ip), vehicle: carboxymethylcellulose (CMC)) is reported as 109 % of control, the T/C (dose: 0.18 mg/kg/injection, schedule: Q01DX Z (ip), vehicle: carboxymethylcellulose (CMC)) is reported as 124 % of control and the T/C (dose: 0.25 mg/kg/injection, schedule: Q01DX015 (ip), vehicle: carboxymethylcellulose (CMC)) is reported as 111 % of control and 115 % of control. For the same molecule, the T/C (dose: 0.25 mg/kg/injection, schedule: Q01DX015 (ip), vehicle: other) was 110 % of control, the T/C (dose: 0.37 mg/kg/injection, schedule: Q01DX Z (ip), vehicle: carboxymethylcellulose (CMC)) was 121 % of control and the T/C (dose: 0.4 mg/kg/injection, schedule: Q01DX009 (sc), vehicle: carboxymethylcellulose (CMC)) was 98 % of control. For the same molecule, the T/C (dose: 0.44 mg/kg/injection, schedule: Q01DX015 (ip), vehicle: carboxymethylcellulose (CMC)) was 113 % of control, the T/C (dose: 0.5 mg/kg/injection, schedule: Q01DX015 (ip), vehicle: carboxymethylcellulose (CMC)) was 123 % of control and the T/C (dose: 0.5 mg/kg/injection, schedule: Q01DX015 (ip), vehicle: other) was 123 % of control. For the same molecule, the T/C (dose: 0.5 mg/kg/injection, schedule: Q01DX Z (ip), vehicle: carboxymethylcellulose (CMC)) was 151 % of control, the T/C (dose: 0.62 mg/kg/injection, schedule: Q01DX015 (oral), vehicle: carboxymethylcellulose (CMC)) was 112 % of control and the T/C (dose: 0.67 mg/kg/injection, schedule: Q01DX015 (ip), vehicle: carboxymethylcellulose (CMC)) was 113 % of control. The T/C (dose: 0.8 mg/kg/injection, schedule: Q01DX009 (oral), vehicle: carboxymethylcellulose (CMC)) was 105 % of control, the T/C (dose: 0.8 mg/kg/injection, schedule: Q01DX009 (sc), vehicle: carboxymethylcellulose (CMC)) was 102 % of control and the T/C (dose: 1.0 mg/kg/injection, schedule: Q01DX015 (ip), vehicle: other) was 124 % of control. For the same molecule, the T/C (dose: 1.0 mg/kg/injection, schedule: Q01DX Z (ip), vehicle: carboxymethylcellulose (CMC)) was 157 % of control, the T/C (dose: 1.25 mg/kg/injection, schedule: Q01DX015 (oral), vehicle: carboxymethylcellulose (CMC)) was 124 % of control and the T/C (dose: 1.56 mg/kg/injection, schedule: Q01DX009 (ip), vehicle: saline) was 152 % of control and 158 % of control. The T/C (dose: 1.8 mg/kg/injection, schedule: Q## X032 (ip), vehicle: carboxymethylcellulose (CMC)) was 120 % of control, the T/C (dose: 2.16 mg/kg/injection, schedule: Q01DX Z (ip), vehicle: carboxymethylcellulose (CMC)) was 152 % of control and the T/C (dose: 2.16 mg/kg/injection, schedule: Q01DX Z (oral), vehicle: carboxymethylcellulose (CMC)) was 114 % of control. The T/C (dose: 2.7 mg/kg/injection, schedule: Q02DX008 (ip), vehicle: carboxymethylcellulose (CMC)) was 152 % of control, the T/C (dose: 3.0 mg/kg/injection, schedule: Q01DX009 (ip), vehicle: saline) was 104 % of control and the T/C (dose: 3.0 mg/kg/injection, schedule: Q01DX Z (ip), vehicle: carboxymethylcellulose (CMC)) was 152 % of control. For the same molecule, the T/C (dose: 4.0 mg/kg/injection, schedule: Q01DX015 (ip), vehicle: carboxymethylcellulose (CMC)) was 120 % of control, the T/C (dose: 4.0 mg/kg/injection, schedule: Q01DX Z (ip), vehicle: carboxymethylcellulose (CMC)) was 108 % of control and the T/C (dose: 4.0 mg/kg/injection, schedule: Q02DX008 (ip), vehicle: carboxymethylcellulose (CMC)) was 153 % of control. The T/C (dose: 4.2 mg/kg/injection, schedule: Q## X032 (ip), vehicle: carboxymethylcellulose (CMC)) was 123 % of control, the T/C (dose: 4.6 mg/kg/injection, schedule: Q01DX009 (ip), vehicle: saline) was 89 % of control and the T/C (dose: 5.5 mg/kg/injection, schedule: Q## X003 (ip), vehicle: carboxymethylcellulose (CMC)) was 156 % of control. The T/C (dose: 5.8 mg/kg/injection, schedule: Q02DX008 (ip), vehicle: carboxymethylcellulose (CMC)) was 156 % of control, the T/C (dose: 6.0 mg/kg/injection, schedule: Q01DX Z (ip), vehicle: carboxymethylcellulose (CMC)) was 122 % of control and the T/C (dose: 6.0 mg/kg/injection, schedule: Q01DX Z (oral), vehicle: carboxymethylcellulose (CMC)) was 150 % of control. For the same molecule, the T/C (dose: 6.25 mg/kg/injection, schedule: Q01DX009 (ip), vehicle: saline) was 118 % of control, the T/C (dose: 6.4 mg/kg/injection, schedule: Q## X032 (ip), vehicle: carboxymethylcellulose (CMC)) was 154 % of control and the T/C (dose: 7.0 mg/kg/injection, schedule: Q01DX Z (ip), vehicle: carboxymethylcellulose (CMC)) was 116 % of control. The T/C (dose: 8.0 mg/kg/injection, schedule: Q01DX Z (ip), vehicle: carboxymethylcellulose (CMC)) was 110 % of control, the T/C (dose: 8.8 mg/kg/injection, schedule: Q02DX008 (ip), vehicle: carboxymethylcellulose (CMC)) was 150 % of control and the T/C (dose: 9.0 mg/kg/injection, schedule: Q01DX Z (ip), vehicle: saline) was 105 % of control and 108 % of control. The T/C (dose: 10.0 mg/kg/injection, schedule: Q01DX Z (oral), vehicle: carboxymethylcellulose (CMC)) was 119 % of control, the T/C (dose: 10.0 mg/kg/injection, schedule: Q## X004 (ip), vehicle: carboxymethylcellulose (CMC)) was 158 % of control and the T/C (dose: 12.5 mg/kg/injection, schedule: Q01DX009 (ip), vehicle: saline) was 108 % of control and 123 % of control. For the same molecule, the T/C (dose: 13.0 mg/kg/injection, schedule: Q01DX Z (ip), vehicle: saline) was 108 % of control, the T/C (dose: 13.0 mg/kg/injection, schedule: Q02DX008 (ip), vehicle: carboxymethylcellulose (CMC)) was 119 % of control and the T/C (dose: 14.0 mg/kg/injection, schedule: Q## X032 (ip), vehicle: carboxymethylcellulose (CMC)) was 155 % of control. For the same molecule, the T/C (dose: 16.0 mg/kg/injection, schedule: Q01DX009 (ip), vehicle: saline) was 104 % of control, the T/C (dose: 16.8 mg/kg/injection, schedule: Q01DX Z (oral), vehicle: carboxymethylcellulose (CMC)) was 108 % of control and the T/C (dose: 18.8 mg/kg/injection, schedule: Q01DX009 (ip), vehicle: saline) was 119 % of control. For the same molecule, the T/C (dose: 18.8 mg/kg/injection, schedule: Q01DX Z (ip), vehicle: saline) was 103 % of control, the T/C (dose: 20.0 mg/kg/injection, schedule: Q01DX Z (ip), vehicle: saline) was 109 % of control and the T/C (dose: 20.0 mg/kg/injection, schedule: Q01DX Z (oral), vehicle: carboxymethylcellulose (CMC)) was 122 % of control. The T/C (dose: 22.0 mg/kg/injection, schedule: Q## X032 (ip), vehicle: carboxymethylcellulose (CMC)) was 155 % of control, the T/C (dose: 22.5 mg/kg/injection, schedule: Q01DX001 (oral), vehicle: carboxymethylcellulose (CMC)) was 154 % of control and the T/C (dose: 25.0 mg/kg/injection, schedule: Q01DX005 (ip), vehicle: saline) was 94 % of control and 111 % of control and 117 % of control. The T/C (dose: 25.0 mg/kg/injection, schedule: Q01DX009 (ip), vehicle: saline) was 100 % of control and 120 % of control and 94 % of control, the T/C (dose: 30.0 mg/kg/injection, schedule: Q01DX Z (ip), vehicle: saline) was 93 % of control and the T/C (dose: 32.0 mg/kg/injection, schedule: Q## X032 (ip), vehicle: carboxymethylcellulose (CMC)) was 119 % of control. The T/C (dose: 36.0 mg/kg/injection, schedule: Q## X016 (ip), vehicle: carboxymethylcellulose (CMC)) was 122 % of control, the T/C (dose: 37.5 mg/kg/injection, schedule: Q01DX009 (ip), vehicle: saline) was 108 % of control and the T/C (dose: 37.5 mg/kg/injection, schedule: Q01DX010 (ip), vehicle: saline) was 97 % of control. For the same molecule, the T/C (dose: 40.0 mg/kg/injection, schedule: Q01DX Z (oral), vehicle: carboxymethylcellulose (CMC)) was 101 % of control, the T/C (dose: 45.0 mg/kg/injection, schedule: Q01DX001 (ip), vehicle: carboxymethylcellulose (CMC)) was 155 % of control and the T/C (dose: 45.0 mg/kg/injection, schedule: Q02DX008 (ip), vehicle: carboxymethylcellulose (CMC)) was 157 % of control. For the same molecule, the T/C (dose: 50.0 mg/kg/injection, schedule: Q01DX001 (ip), vehicle: saline) was 96 % of control, the T/C (dose: 50.0 mg/kg/injection, schedule: Q01DX005 (ip), vehicle: saline) was 111 % of control and the T/C (dose: 67.0 mg/kg/injection, schedule: Q## X004 (ip), vehicle: carboxymethylcellulose (CMC)) was 151 % of control. The T/C (dose: 75.0 mg/kg/injection, schedule: Q01DX009 (ip), vehicle: saline) was 96 % of control, the T/C (dose: 90.0 mg/kg/injection, schedule: Q01DX001 (sc), vehicle: carboxymethylcellulose (CMC)) was 156 % of control and the T/C (dose: 100.0 mg/kg/injection, schedule: Q01DX001 (ip), vehicle: carboxymethylcellulose (CMC)) was 155 % of control. The T/C (dose: 100.0 mg/kg/injection, schedule: Q01DX001 (ip), vehicle: saline) was 102 % of control, the T/C (dose: 100.0 mg/kg/injection, schedule: Q01DX009 (ip), vehicle: saline) was 104 % of control and the T/C (dose: 144.0 mg/kg/injection, schedule: Q01DX001 (ip), vehicle: carboxymethylcellulose (CMC)) was 158 % of control. The T/C (dose: 150.0 mg/kg/injection, schedule: Q01DX001 (ip), vehicle: carboxymethylcellulose (CMC)) was 157 % of control, the T/C (dose: 180.0 mg/kg/injection, schedule: Q01DX001 (ip), vehicle: carboxymethylcellulose (CMC)) was 154 % of control and the T/C (dose: 180.0 mg/kg/injection, schedule: Q## X002 (ip), vehicle: carboxymethylcellulose (CMC)) was 109 % of control. The T/C (dose: 200.0 mg/kg/injection, schedule: Q01DX001 (ip), vehicle: saline) was 98 % of control, the T/C (dose: 200.0 mg/kg/injection, schedule: Q01DX005 (ip), vehicle: saline) was 120 % of control and 106 % of control and the T/C (dose: 200.0 mg/kg/injection, schedule: Q01DX009 (ip), vehicle: saline) was 105 % of control. For the same molecule, the T/C (dose: 225.0 mg/kg/injection, schedule: Q01DX001 (ip), vehicle: carboxymethylcellulose (CMC)) was 150 % of control, the T/C (dose: 225.0 mg/kg/injection, schedule: Q## X004 (ip), vehicle: carboxymethylcellulose (CMC)) was 119 % of control and the T/C (dose: 270.0 mg/kg/injection, schedule: Q01DX001 (ip), vehicle: carboxymethylcellulose (CMC)) was 124 % of control. For the same molecule, the T/C (dose: 360.0 mg/kg/injection, schedule: Q01DX001 (sc), vehicle: carboxymethylcellulose (CMC)) was 95 % of control, the T/C (dose: 360.0 mg/kg/injection, schedule: Q## X003 (oral), vehicle: carboxymethylcellulose (CMC)) was 110 % of control and the T/C (dose: 400.0 mg/kg/injection, schedule: Q01DX001 (ip), vehicle: carboxymethylcellulose (CMC)) was 103 % of control. The T/C (dose: 400.0 mg/kg/injection, schedule: Q01DX009 (ip), vehicle: saline) was 94 % of control, the T/C (dose: 720.0 mg/kg/injection, schedule: Q01DX001 (oral), vehicle: carboxymethylcellulose (CMC)) was 109 % of control and the T/C (dose: 84.0 micrograms/kg/injection, schedule: Q01DX Z (ip), vehicle: saline) was 121 % of control. For the same molecule, the T/C (dose: 120.0 micrograms/kg/injection, schedule: Q01DX Z (ip), vehicle: saline) was 115 % of control and the T/C (dose: 290.0 micrograms/kg/injection, schedule: Q01DX Z (ip), vehicle: saline) was 151 % of control.
